Assay results taken from PubChem BioAssay (NCI).
“And” between values parts separate entries of the source, which are not always exact repeats. Equal entries are not always repeated.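 Briefly, cells in 96-well plates were exposed to five compound concentrations for 48 h, and endpoints were estimated by linear interpolation. Abbreviation: GI50, concentration required for 50% inhibition of growth. TGI is the concentration that stops growth completely.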

Legend:
Test in all cases: NCI-60 cell line screen, 48 h
COLO 205 colon = test system: COLO 205 colon
SNB-19 CNS = test system: SNB-19 CNS
M14 melanoma = test system: M14 melanoma
HOP-92 NSCLC = test system: HOP-92 NSCLC
TK-10 renal = test system: TK-10 renal
OVCAR-4 ovarian = test system: OVCAR-4 ovarian
NCI-H23 lung = test system: NCI-H23 lung
HL-60(TB) leukemia = test system: HL-60(TB) leukemia
UACC-257 melanoma = test system: UACC-257 melanoma
OVCAR-5 ovarian = test system: OVCAR-5 ovarian

SMILES | GI50 (COLO 205 colon) | TGI (COLO 205 colon) | GI50 (SNB-19 CNS) | TGI (SNB-19 CNS) [µM] | GI50 (M14 melanoma) | TGI (M14 melanoma) [µM] | GI50 (HOP-92 NSCLC) | TGI (HOP-92 NSCLC) | GI50 (TK-10 renal) | TGI (TK-10 renal) | GI50 (OVCAR-4 ovarian) | TGI (OVCAR-4 ovarian) | GI50 (NCI-H23 lung) | TGI (NCI-H23 lung) [µM] | GI50 (HL-60(TB) leukemia) | TGI (HL-60(TB) leukemia) | GI50 (UACC-257 melanoma) | TGI (UACC-257 melanoma) [µM] | GI50 (OVCAR-5 ovarian) | TGI (OVCAR-5 ovarian) [µM]
Nc1ccccc1O.O.O=C(O)C1[O][Sb][O]C1C(=O)O (stereo unspecified) | 18.7 µM | 35.3 µM | 55.5 µM | > 100 | 11.5 µM | 25.9 | 21 µM | 40.2 µM | 18 µM | 32.4 µM | 16 µM | 30.6 µM | 17.6 µM | 44.2 | 1.86 µM | 10.6 µM | 14.1 µM | 28 | 18.4 µM | 38.5
CN(C)CCNCCN |  | > 100 µM |  | > 100 |  | > 100 |  | > 100 µM |  | > 100 µM |  | > 100 µM |  | > 100 |  | > 100 µM |  | > 100 |  | > 100
ClC(Cl)=C1C(=C(Cl)Cl)C(Cl)(Cl)C1(Cl)Cl |  | 10.8 µM |  | 29 |  | 4.17 |  | 4.5 µM |  | 11 µM |  | 16 µM |  | 3.57 | 0.259 µM | 0.66 µM and 2.11 µM |  | 12.9 |  | 6.25
O=C(CC(=O)C1CCOC1=O)C(=O)Nc1cccc(Cl)c1 (stereo unspecified) |  | > 100 µM |  | > 100 |  | > 100 |  | > 100 µM |  | > 100 µM |  | > 100 µM |  | > 100 |  | > 100 µM |  | > 100 |  | > 100
COC(=O)C1C(O)C(C(=O)OC)C(C)N(C)C1C (stereo unspecified) |  | > 100 µM |  | > 100 |  | > 100 |  | > 100 µM |  | > 100 µM |  | > 100 µM |  | > 100 |  | > 100 µM |  | > 100 |  | > 100
O=C(Nc1cc(Nc2ncccc2-c2ncnc3nc[nH]c23)ccc1F)c1cc(C(F)(F)F)cc(C(F)(F)F)c1 | 0.39 µM | 2.2 µM | 3.78 µM | > 10 | 0.33 µM | 1.6 | 0.891 µM | 3.92 µM | 3.75 µM | > 10 µM | 1.57 µM | 4.34 µM | 1.45 µM | > 10 | 0.439 µM | 8.44 µM | 0.474 µM | > 10 | 0.868 µM | 2.98
CCNC(=O)/C(=C/c1ccc(OC)cc1)c1cc(OC)c(OC)c(OC)c1 |  | 24.8 µM |  | > 100 |  | > 100 |  | > 96.6 µM |  | > 69.7 µM |  | > 100 µM |  | > 85.3 |  | 21.9 µM |  | > 100 |  | > 100
COC(=O)C1=COC(C)C2CN3CCc4c([nH]c5ccccc45)C3CC12 (stereo unspecified) | 18.2 µM and > 100 µM | 36.4 µM and > 100 µM |  | > 100 | 38.4 µM and > 100 µM | > 100 | 18.3 µM and > 100 µM | 77.4 µM and > 100 µM | 27.7 µM and > 100 µM | 88.5 µM and > 100 µM | 25.4 µM and > 100 µM | > 100 µM | 33.8 µM and > 100 µM | > 100 | 17.5 µM and 46.1 µM | 41.7 µM and > 100 µM | 34.2 µM and > 100 µM | > 100 |  | > 100
Nc1ccccc1C(=O)/C=C/c1c(O)ccc2ccccc12 |  | > 100 µM |  | > 100 |  | > 100 |  | > 100 µM |  | > 100 µM |  | > 100 µM |  | > 100 |  | > 100 µM |  | > 100 |  | > 100
COc1cc2c(Nc3cc(Cl)c(OC)c(Cl)c3)c(C#N)cnc2cc1OCCCN1CCN(C)CC1 | 2.02 µM | 3.79 µM | 4.57 µM | 14.9 | 1.1 µM | 2.57 | 7.83 µM | 19.4 µM | 0.253 µM | 2.43 µM | 1.9 µM | 11.3 µM | 1.54 µM | 4.89 | 1.78 µM | 4.03 µM | 1.67 µM | 3.07 | 1.56 µM | 11.7
O=C(Nc1cc(Cl)ccc1O)c1ccc(Nc2ccnc(C(F)(F)F)c2)cc1 | 1.86 µM | 4.23 µM | 2.15 µM | 7.78 | 3.56 µM | 54.1 | 2.24 µM | 6.12 µM | 2 µM | 7.89 µM | 3.56 µM | > 100 µM | 2.46 µM | 7.81 | 1.25 µM | 4.42 µM | 3.53 µM | > 100 | 3.61 µM | > 100
COc1ccc(-c2cnnn2-c2nonc2-n2cccc2)cc1 | 0.235 µM | 0.787 µM | 0.722 µM | > 100 | 0.209 µM | 6.62 | 0.437 µM | 43.9 µM | 2.12 µM | > 61 µM | 1.78 µM | > 100 µM | 0.246 µM | 5.82 | 0.177 µM | 0.547 µM | 0.373 µM | 35.1 | 1.45 µM | > 100
COc1ccc(-c2ccc3c(N4CCOC[C@@H]4C)nc(N4CCOC[C@@H]4C)nc3n2)cc1CO | 0.00502 µM and 0.0474 µM |  | 0.00693 µM and 0.0491 µM | > 100 | 0.00517 µM and 0.0262 µM | 20.5 | 0.00134 µM and 0.0105 µM |  | 0.00484 µM and 0.0147 µM | 0.237 µM and 0.212 µM | 0.00414 µM and < 0.0142 µM | 0.0382 µM and 0.12 µM | 0.00731 µM and 0.0394 µM | > 100 |  | > 3.76 µM and 20.7 µM | 0.00454 µM and 0.023 µM | 0.0285 | 0.00607 µM and 0.0331 µM | 60.3
COc1cccc(/C=N/[N-]C(=O)c2ccncc2)c1[O-].COc1cccc(/C=N/[N-]C(=O)c2ccncc2)c1[O-].[O]=[U](=[O])([OH2+])[OH2+] | 4.09 µM | > 100 µM | 9.44 µM | > 100 | 5.47 µM | > 61.4 | 14.3 µM | 54.5 µM | 13.1 µM | > 31.6 µM | > 34.2 µM | > 100 µM | 3.93 µM | > 70 | 2.43 µM | > 100 µM | 4.73 µM | > 54.4 | 6.79 µM | > 100
